Like-named read-outs stand apart in the source and are kept apart here. Peptide text beside a SMILES is read from it.
How the values were obtained:
[1] = system: extracellular wastewater peptidases (pool I extracts from WWTP influents); assay: Absolute quantification of transformation products (TPs) formed during AMP incubation with wastewater extracts; format: in vitro ADME
Description: We thawed enzyme extracts and transferred 1.35 mL to 2 mL protein LoBind Eppendorf tubes. For autoclaved controls, extract aliquots of 1.5 mL were autoclaved for 20 min at 121 °C and 2 bar (Wolf Sanoclav LaS-MCS-J) and 1.35 mL of the autoclaved extracts were transferred into 2 mL protein LoBind Eppendorf tubes. We then spiked 150 μL of the AMP stock solution containing all AMPs at 10 μg/mL to the enzyme extracts or 1.35 mL of ultrapure water. […] Triplicate incubations were conducted for the autoclaved and active extracts with spiked AMP. After AMP spiking, we mixed the solutions by inverting the vials and incubating them at 20 °C under horizontal shaking at 300 rpm. To stop enzymatic reactions at pre-defined sampling time points (i.e., 2 min, 30 min, 1 h, 2 h, and 4 h), we transferred 150 μL of the incubation solution to 450 μL of acetonitrile containing 1% (v/v) formic acid in 1.5 mL protein LoBind Eppendorf tubes, mixed the resulting solution by inverting the tube and by horizontally shaking it at 300 rpm for 2 min at 20 °C, and centrifuged samples at 16,000g for 1 min. This protocol step was conducted according to Luther et al.[9] We then transferred the supernatant into a fresh 1.5 mL protein LoBind Eppendorf tube and dried it in a SpeedVac vacuum concentrator (30 °C for approximately 6 h). To resolubilize AMPs, we added 150 μL of water containing 5% (v/v) acetonitrile and 0.1% (v/v) formic acid, vortexed the samples, and centrifuged them for 10 s at 1000g at room temperature. We transferred the solution into QuanRecovery HPLC vials (Waters, 186009186) and stored the samples at −20 °C until analysis. For method development, selected (and indicated) samples were sonicated (Sonorex Super RK 106, Bandelin, max 480 W) for 5 min at different steps of the sample preparation process.
We analyzed AMPs using UHPLC (Thermo Scientific Dionex Ultimate 3000) equipped with a Waters XSelect PREMIER CSH C18 column (article number: 186009870) coupled to HRMS (Thermo QExactive). […] We used Skyline (version 20.2.0.343) to analyze the raw data. Criteria for parent peptides and hydrolysis product identification were set as described before:[31]m/z deviation <2 ppm, MS/MS fragments with m/z deviation <5 ppm, and reasonable chromatographic peak shape. For products, the peak area had to either increase throughout the incubation experiment or first increase and then decrease.
To learn about the enzymatic hydrolysis pathways of AMPs that we found to be rapidly biotransformed by enzymes in wastewater extracts, we predicted all products of single peptide bond hydrolysis reactions and screened our data-dependent high-resolution mass spectrometry data for experimental evidence in support of the predicted hydrolysis products. These analyses were conducted for the AMPs with the highest biotransformation extents (i.e., >0.5 in at least two WWTPs), namely, cecropin P1, omiganan, and R8. The following requirements for transformation products (TPs) were defined: at least three amino acids, peak area either increases during the incubation experiment or first increases and then decreases, peak area exceeds that in AMP-free enzyme extract by >5-fold and that in spiked autoclaved extracts by >6-fold, and mass deviation <2 ppm from the calculated exact mass. Mass lists, mass deviations, and retention times of all TPs can be found in Tables S6–S11. We further predicted TPs formed via exocleavage mechanisms (i.e., cleavage of one or two terminal amino acids simultaneously from the C- and N- terminus of the peptide) and screened for these TPs in the HRMS data.
For cecropin P1, we performed absolute quantification for TPs II, III, IV, V, VI, and X and found the highest concentrations for TP III. Up to 8.8% of spiked cecropin P1 is converted to TP III during incubations with wastewater extract. For TP II, the conversion ranges from 3.7–5.7%, and for TP V and VI, conversions range between 1.5 and 4.9 and 2.1 and 2.9%, respectively. […]

[2] = system: extracellular wastewater peptidases (pool I extracts from WWTP influents); assay: AMP incubation with active dissolved extracellular wastewater extracts (pool I) from WWTP influents; format: in vitro ADME
Description: We took samples from four municipal WWTPs in Austria ([…], and D). […] Where existing, we sampled the following five stages along the wastewater treatment process: influent, primary clarification tank, high-load and low-load aeration tanks, and effluent. […] We took 2 × 500 mL grab samples at each stage using a plastic beaker. We transferred the samples into 500 mL glass bottles leaving roughly one-third of the bottle empty, transported them to the lab, and pooled duplicate samples for further processing. Enzyme extraction started within 1 h after sampling. For total suspended solid (TSS) determination, we filtered 20 mL of each sample through a preweighed, dry GF/F Whatman glass microfiber filter (Sigma-Aldrich, WHA1825047) using a vacuum filtration system, dried the filters at 105 °C for 2 h, and determined the TSS contents from the weight difference. […] Otherwise, the extraction process was the same for pools I and II. All extractions were performed in triplicate, and extracts were kept on ice until further use. […] Triplicate incubations were conducted for the autoclaved and active extracts with spiked AMP. […] This protocol step was conducted according to Luther et al.[9] We then transferred the supernatant into a fresh 1.5 mL protein LoBind Eppendorf tube and dried it in a SpeedVac vacuum concentrator (30 °C for approximately 6 h). […] We transferred the solution into QuanRecovery HPLC vials (Waters, 186009186) and stored the samples at -20 °C until analysis. For method development, selected (and indicated) samples were sonicated (Sonorex Super RK 106, Bandelin, max 480 W) for 5 min at different steps of the sample preparation process. We analyzed AMPs using UHPLC (Thermo Scientific Dionex Ultimate 3000) equipped with a Waters XSelect PREMIER CSH C18 column (article number: 186009870) coupled to HRMS (Thermo QExactive). We injected 10 μL of each sample and applied a flow rate of 0.4 mL/min using the following eluent gradient (A: ultrapure water, B: […] Detection parameters were chosen as follows: […] We used Skyline (version 20.2.0.343) to analyze the raw data. […] For products, the peak area had to either increase throughout the incubation experiment or first increase and then decrease.

[3] = system: dissolved extracellular wastewater enzymes derived from aeration tanks of WWTPs; conditions: cited from earlier work
Description: Our results on daptomycin are consistent with an earlier study that reported daptomycin concentrations to be stable during its incubation with dissolved extracellular wastewater enzymes derived from aeration tanks of WWTPs.[33] We note that daptomycin concentrations in experiments with autoclaved controls were lower compared to active extracts for ...

[4] = maximum TP concentration corrected for sorption to the wastewater matrix
[5] = maximum TP concentration during incubation of parent AMP with wastewater extracts, synthetic standards, HPLC-HRMS
[6] = pool I influent extracts, WWTPs A-D, absolute quantification with synthetic peptide standards, HPLC-HRMS, triplicate incubations
[7] = pool I influent extracts, WWTPs A-D, active compared with autoclaved extracts, 20 °C, up to 4 h, HPLC-HRMS, triplicate incubations

With `CC[C@H](C)[C@H](NC(=O)[C@H](C)N)C(=O)N[C@@H](CCC(N)=O)C(=O)NCC(=O)NCC(=O)N1CCC[C@H]1C(=O)N[C@@H](CCCNC(=N)N)C(=O)O` [AIQGGPR (V)] (H-AIQGGPR-OH) the “Potential conc. considering sorption” value [1, 4] was 78.2 µg/L and the “Maximum conc. detected in exp.” value [1, 5] was 48.6 µg/L.
With `CC(C)[C@H](NC(=O)[C@H](CCCCN)NC(=O)CNC(=O)[C@H](Cc1ccccc1)NC(=O)[C@@H](NC(=O)[C@H](C)N)C(C)C)C(=O)O` [AVFGKV (V)] (H-AVFGKV-OH) the “Potential conc. considering sorption” value [1, 4] was 30.0 µg/L and the “Maximum conc. detected in exp.” value [1, 5] was 27.5 µg/L.
For `CC(C)C[C@H](NC(=O)[C@@H](N)Cc1ccccc1)C(=O)NCC(=O)O` [FLG (IV)] (H-Phe-Leu-Gly-OH), the “Maximum conc. detected in exp.” value [1] was 22.8 µg/L and the “Potential conc. considering sorption” value [1] was 29.3 µg/L.
In the case of `CC(C)C[C@H](NC(=O)[C@@H](N)Cc1ccccc1)C(=O)NCC(=O)N[C@@H](CCCCN)C(=O)N[C@H](C(=O)O)C(C)C` [FLGKV (II)] (H-FLGKV-OH), the “Potential conc. considering sorption” value [1, 4] is reported as 19.5 µg/L and the “Maximum conc. detected in exp.” value [1, 5] is reported as 16.5 µg/L.
With `CC(C)C[C@H](NC(=O)[C@@H](N)Cc1ccccc1)C(=O)NCC(=O)N[C@@H](CCCCN)C(=O)N[C@H](C(=O)N[C@@H](Cc1ccccc1)C(=O)O)C(C)C` [FLGKVF (I)] (H-FLGKVF-OH) the “Potential conc. considering sorption” value [1, 4] was 101.9 µg/L, the “Maximum conc. detected in exp.” value [1, 5] was 78.3 µg/L and the “conversion of spiked parent AMP to the TP during incubation with wastewater extract” value (“conversion of spiked parent AMP” for short) [1, 6] was “Up to 7.8%”.
In the case of `CC[C@H](C)[C@H](N)C(=O)N[C@@H](CC(C)C)C(=O)N[C@@H](CCCNC(=N)N)C(=O)N[C@@H](Cc1c[nH]c2ccccc12)C(=O)N1CCC[C@H]1C(=O)N[C@@H](Cc1c[nH]c2ccccc12)C(=O)N[C@@H](Cc1c[nH]c2ccccc12)C(=O)N1CCC[C@H]1C(=O)O` [ILRWPWWP (I)] (H-ILRWPWWP-OH), the “Maximum conc. detected in exp.” value [1] is reported as 6.9 µg/L, the “Potential conc. considering sorption” value [1] is reported as 8.1 µg/L and the “conversion of spiked parent AMP” value [1] is reported as “less than 1%”.
For `CC[C@H](C)[C@H](N)C(=O)N[C@@H](CCC(N)=O)C(=O)NCC(=O)NCC(=O)N1CCC[C@H]1C(=O)N[C@@H](CCCNC(=N)N)C(=O)O` [IQGGPR (III)] (H-IQGGPR-OH), the “Potential conc. considering sorption” value [1, 4] was 124.8 µg/L, the “Maximum conc. detected in exp.” value [1, 5] was 87.8 µg/L and the “conversion of spiked parent AMP” value [1, 6] was “Up to 8.8%”.
For `CC(C)C[C@H](NC(=O)[C@H](Cc1c[nH]c2ccccc12)NC(=O)[C@@H](N)CO)C(=O)O` [SWL (IV)] (H-Ser-Trp-Leu-OH), the “Maximum conc. detected in exp.” value [1] was 2.7 µg/L, the “Potential conc. considering sorption” value [1] was 3.4 µg/L and the “conversion of spiked parent AMP” value [1] was “less than 1%”.
For `CC(C)C[C@H](NC(=O)[C@H](Cc1c[nH]c2ccccc12)NC(=O)[C@@H](N)CO)C(=O)N[C@@H](CO)C(=O)O` [SWLS (II)] (H-SWLS-OH), the “Potential conc. considering sorption” value [1, 4] was 69.5 µg/L, the “Maximum conc. detected in exp.” value [1, 5] was 57.1 µg/L and the “conversion of spiked parent AMP” value [1, 6] was 3.7–5.7%.
In the case of `CC(C)C[C@H](NC(=O)[C@H](Cc1c[nH]c2ccccc12)NC(=O)[C@@H](N)CO)C(=O)N[C@@H](CO)C(=O)N[C@@H](CCCCN)C(=O)N[C@H](C(=O)O)[C@@H](C)O` [SWLSKT (X)] (H-SWLSKT-OH), the “Potential conc. considering sorption” value [1, 4] is reported as 3.7 µg/L, the “Maximum conc. detected in exp.” value [1, 5] is reported as 2.9 µg/L and the “conversion of spiked parent AMP” value [1, 6] is reported as “less than 1%”.
With `CC(C)C[C@H](NC(=O)[C@H](Cc1c[nH]c2ccccc12)NC(=O)[C@@H](N)CO)C(=O)N[C@@H](CO)C(=O)N[C@@H](CCCCN)C(=O)N[C@H](C(=O)N[C@@H](C)C(=O)O)[C@@H](C)O` [SWLSKTA (VI)] (H-SWLSKTA-OH) the “Potential conc. considering sorption” value [1, 4] was 36.4 µg/L and the “Maximum conc. detected in exp.” value [1, 5] was 28.6 µg/L.
In the case of `CC(C)[C@H](N)C(=O)N[C@@H](Cc1ccccc1)C(=O)NCC(=O)N[C@@H](CCCCN)C(=O)N[C@H](C(=O)O)C(C)C` [VFGKV (VII)] (H-VFGKV-OH), the “Potential conc. considering sorption” value [1, 4] is reported as 47.1 µg/L and the “Maximum conc. detected in exp.” value [1, 5] is reported as 32.1 µg/L.
In the case of bacitracin A, the “removal by biotransformation in active wastewater extracts (in words)” value (“removal by biotransformation” for short) [2, 7] is reported as “did not observe substantial removal”.
With colistin A the “removal by biotransformation” value [2] was “biotransformed” and the “detectable removal during incubation, of the amounts detected at the first time point, in active extracts” value ([2]; pool I influent extracts, WWTPs A-D, all AMPs spiked together (150 μL of 10 μg/mL into 1.35 mL extract), 20 °C, 300 rpm, sampling 2 min to 4 h, HPLC-HRMS, triplicate incubations, maximum over WWTPs) was “up to 50%”.
In the case of colistin B, the “removal by biotransformation” value [2] is reported as “biotransformed”.
For daptomycin, the “removal by biotransformation” value [2, 7] is given as “did not observe substantial removal” and the “daptomycin concentration during incubation with dissolved extracellular wastewater enzymes” value [3] is given as “stable”.
In the case of murepavadin, the “removal by biotransformation” value [2] is reported as “did not observe substantial removal”.
For omiganan, the “biotransformation extent (eq 1, from concentrations in active and autoclaved extracts)” value [2] was greater than 0.5 and the “removal by biotransformation” value [2] was “rapidly removed to nonquantifiable concentrations”.

— article PMC10785756, “Hydrolysis of Antimicrobial Peptides by Extracellular Peptidases in Wastewater” (Environmental Science & Technology, 2023)
